Read-outs that look alike come from different tables or passages of the source.
What was measured:
[1] = system: Moloney virus / viro-induced Moloney sarcoma; test: Test 3: development of the viro-induced Moloney sarcoma; format: in vivo, new-born mice; conditions: 1 μg/mouse (0.5 mg/kg)
Source text: The study of the development of the MOLONEY viro-induced sarcoma (Nat. Cancer. Inst. Monograph 22, 139-142, 1966) has also made it possible to determine that the compounds according to the invention are antiviral and antitumoral agents in lower animals.
Test 3: Study of the development of the viro-induced Moloney sarcoma
The injection of Moloney virus [C. Jasmin et al. J. Nat. Cander Inst. 1974 53 469-474] by the intramuscular i.m. route into new-born mice led after 10 days to the formation of a sarcoma. The appearance of the tumour was proportional to the dose of virus injected. The viral inoculum was constituted by a tumor homogenate diluted to 1/250, this corresponding to 10 TID 50, i.e. to the dose of virus inducing the appearance of a tumour in 50% of the animals infected. At this dose, 80 to 100% of the animals developed a tumour, and 100% of the survivors became leukemic. The experiment thus consisted in noting the number of mice presenting tumours, the regression, or not, of these tumours and finally in sacrificing the surviving animals after 2 months and in noting the presence or absence of splenomegaly (evidence of a leukemia). The virus was inoculated into new-born mice of 3 to 5 days by the IM route, and the mice received the following day (J+1) or five hours after injection (JO+5 hours) the product to be tested by the IP route.

[2] = Test 4: toxicity on adult F1 mice, IP; conditions: in vivo
Source text: Test 4: Investigation of the toxicity
The toxic dose has been sought, on adult ([…]×DBA/2) Fl mice and on new-born mice, of the compounds of the invention by injection by the IP route. The results obtained are given hereinafter:
1- On adult F1 mice (C 57 BL 6×DBA/2)F1 (IP route)

[3] = system: tumoral strain derived from the murine leukemia due to the C. FRIEND virus; test: Test 7: antitumoral activity in vitro on Friend leukemia tumoral strain; format: cell-based; conditions: HUM = 1
Description: Test 7: Study of the antitumoral activity in vitro
This activity was measured on a tumoral strain derived from the murine leukemia due to the C. FRIEND virus.
The tumoral cells multiply in suspension in a "RPMI 1640" medium (Catalogue of GIBCO Bio-cult. Ltd. Washington Road, Sandyford Industrial Estate, PAISLEY PA 3 4EP, Renfrewshire, Scotland) supplemented with 20% of embryonary calf serum, penicillin and streptomycine. The duplication time of these cells is 11 hours. The growth fraction is equal to 1 or very close to 1 (all the cells are in the cycle). The cultures are sub-culturedat time t=0 at the concentration of 2.10^5 cells per ml in Falcon dishes containing 4 ml of medium. After twenty four hours, the product to be tested was added, i.e. at a moment when the cultures are in exponential phase of growth. Twenty four hours after the addition of the product, the cells are counted and the percentage of living cells determined by an exclusion test using "trypan" blue.

[4] = Test 8: acute toxicity in vivo, C3H mice; conditions: mouse, read-out: LD 500
Description: (§1) Test 8: Acute toxicity in vivo
(§2) The products to be tested were injected by the IP route into groups of 10 mice at various dilutions. Each day, the number of dead animals is noted. If the doses are well chosen, a 100% lethal dose and a 50% lethal dose have been able to be defined for each product. This study is limited to two months. Two isogenic mouse strains were systematically used: C3H/He and ICFW.

[5] = system: C3H/He mice; test: Test 8: acute toxicity in vivo, C3H mice; conditions: mouse, ip
Description: as §1, §2

[6] = Test 8: acute toxicity in vivo, ICFW mice; conditions: mouse, read-out: LD 500
Description: as §1, §2

[7] = system: ICFW mice; test: Test 8: acute toxicity in vivo, ICFW mice; conditions: mouse, ip
Description: as §1, §2

[8] = system: chloromonocytary tumoral cells; test: Test 9: action on chloromonocytary tumoral cells (chloroleukemia); format: in vivo, ICFW mouse
Description: Test 9: Action on chloromonocytary tumoral cells
In this test, the action of the products according to the invention on chloromonocytary tumoral cells was determined according to the chloroleukemia of the mouse test (ICFW mouse, co-sanguine CFW strain) isolated in Unit 22 (B. TAMBOURIN and F. WENDLING) of the "Institut National de la Sante et de la Recherche Medicale- Paris" (I.N.S.E.R.M.) in a mouse injected with a variant of the Friend virus.
The tumour kills all the animals injected in 19.3± 2 days. This tumour develops in semi-solid ascitic form; the peritoneum is invaded, both by solid tumoral masses and cells in suspension in the ascitic liquid. The tumour is transmitted by the cells of the suspension which produce the tumoral masses and the ascitic cells.

[9] = system: Friend leukemia virus; test: Test 14: viro-induced Friend leukemia, compound 21 (Tables Xa, Xb); format: in vivo, mouse; design: MST: unit not given beside the values; conditions: for life span: Tables Xa and II
Description: Test 14: viro-induced leukemia: Friend leukemia
A- As in test 2 hereinabove, the Friend leukemia virus inoculum was obtained from leukemia spleen and diluted to contain 100 SD50 /0.2 ml (SD50 =spleen enlarging dose 50 percent). The product to be tested was compound 21 (obtained according to example 7). It was given by I.P. route as a single injection 1 day after virus inoculation. […]
B. The proceeding of test 2 was repeated by using the compound 21 i.e. 1-[(γ-diethylaminopropyl)amino]-5-methyl-dipyrido[4,3-b][3,4-f]indole obtained according to example 7.
This test was carried out with a single dose of compound 21 (20 mg/kg) and with various virus doses.

[10] = Table Xa, 5 mg/kg, 1 day after virus
[11] = Table Xb, 20 mg/kg J+1, virus 1/500 (1000 SD50)
[12] = Table Xb, 20 mg/kg J+1, virus 1/1000
[13] = Table Xb, 20 mg/kg J+1, virus 1/2000 (250 SD50)

**Q.** Which “animals presenting a tumour” value ([1]; JO+5 hours) does the source give for `Cc1c2ccncc2c(C)c2c1[nH]c1ccncc12` [Example 1, 5,11-dimethyl dipyrido [4,3-b][3,4-f] indole] here?
**A.** The value was 50%.

**Q.** What about the animals survived ([1]; JO+5 hours) of the same molecule?
**A.** Its animals survived is 75%.

**Q.** And the mice with leukemia ([1]; JO+5 hours)?
**A.** Its mice with leukemia is 65%.

**Q.** And the tumours regressed ([1]; JO+5 hours)?
**A.** The tumours regressed was 30%.

**Q.** What about the mortality ([2]; mouse, ip, 20 mg/kg) of the same molecule?
**A.** The mortality was 16.7%.

**Q.** What about the mortality ([2]; mouse, ip, 40 mg/kg) of the same molecule?
**A.** The mortality was 12.5%.

**Q.** What about the mortality ([2]; mouse, ip, 80 mg/kg) of the same molecule?
**A.** The mortality was 83.3%.

**Q.** And the “Activity (ratio of the LD50 of HUM to the LD50 of the product tested)” value [3]?
**A.** The value was 3.

**Q.** What about the LD50 ([4]; ip) of the same molecule?
**A.** The LD50 was 100 mg/kg.

**Q.** And the “LD 100” value [5]?
**A.** Its value is 200 mg/kg.

**Q.** And the LD50 ([6]; ip)?
**A.** Its LD50 is 150 mg/kg.

**Q.** And the “LD 100” value [7]?
**A.** The value was 200 mg/kg.

**Q.** And the “Mean survival time after treatment” value ([8]; 40 mg/kg 6 hours after inoculation, without treatment 18.5 ± 2 days)?
**A.** The value was 25.3 ± 3.1 days.

**Q.** What about the life span [9] of the same molecule?
**A.** The life span was “significant increase of the life span”.

**Q.** Which animals survived ([1]; J+1) does the source give for `CCN(CC)CCCNc1nccc2c(C)c3[nH]c4ccncc4c3cc12` [Example 7, 1-(γ-diethylaminopropyl)amino-5-methyl-dipyrido-[4,3-b][3,4-f] indole] here?
**A.** The animals survived was 90%.

**Q.** What about the mice presenting tumours ([1]; J+1) of the same molecule?
**A.** Its mice presenting tumours is 70%.

**Q.** What about the mice with leukemia ([1]; J+1) of the same molecule?
**A.** Its mice with leukemia is 0%.

**Q.** What about the tumours regressed ([1]; J+1) of the same molecule?
**A.** The tumours regressed was 90%.

**Q.** And the “animals presenting a tumour” value ([1]; JO+5 hours)?
**A.** Its value is 5%.

**Q.** And the animals survived ([1]; JO+5 hours)?
**A.** The animals survived was 100%.

**Q.** What about the mice with leukemia ([1]; JO+5 hours) of the same molecule?
**A.** Its mice with leukemia is 40%.

**Q.** And the tumours regressed ([1]; JO+5 hours)?
**A.** Its tumours regressed is 100%.

**Q.** What about the mortality ([2]; 0.3 mg/mouse (15 mg/kg), IP, read-out: dead mice (converted)) of the same molecule?
**A.** Its mortality is 0%.

**Q.** What about the mortality ([2]; 0.5 mg/mouse (25 mg/kg), IP, read-out: dead mice (converted)) of the same molecule?
**A.** The mortality was 0%.

**Q.** And the mortality ([2]; 0.6 mg/mouse (30 mg/kg), IP, read-out: dead mice (converted))?
**A.** The mortality was 50%.

**Q.** What about the mortality ([2]; 1 mg/mouse (50 mg/kg), IP, read-out: dead mice (converted)) of the same molecule?
**A.** Its mortality is 33.3%.

**Q.** And the LD50 ([2]; mouse, adult F1 mice, IP)?
**A.** The LD50 was 30 mg/kg.

**Q.** And the “Activity (ratio of the LD50 of HUM to the LD50 of the product tested)” value [3]?
**A.** The value was 20.

**Q.** And the LD50 ([4]; C3H, IP)?
**A.** Its LD50 is 20 mg/kg.

**Q.** What about the “LD 100” value [5] of the same molecule?
**A.** Its value is 35 mg/kg.

**Q.** And the LD50 ([6]; ICFW, IP)?
**A.** Its LD50 is 15 mg/kg.

**Q.** And the “LD 100” value [7]?
**A.** Its value is 25 mg/kg.

**Q.** What about the “Mean survival time after treatment” value ([8]; 1 mg/kg 24 hours after inoculation, without treatment 18.9 ± 1.8 day) of the same molecule?
**A.** The value was 29.0 ± 3.0 days.

**Q.** What about the ILS % [9, 10] of the same molecule?
**A.** The ILS % was 39%.

**Q.** And the MST [9, 10]?
**A.** Its MST is 44.5.

**Q.** And the Range of death [9, 10]?
**A.** Its Range of death is 27 to 52 days.

**Q.** What about the ILS % [9, 11] of the same molecule?
**A.** The ILS % was 40%.

**Q.** And the MST [9, 11]?
**A.** Its MST is 40.7.

**Q.** And the Range of death [9, 11]?
**A.** The Range of death was 31-51.

**Q.** What about the “Survivors 4 months after inoculation” value [9, 11] of the same molecule?
**A.** The value was 0.

**Q.** What about the ILS % [9, 12] of the same molecule?
**A.** Its ILS % is 82.7%.

**Q.** What about the MST [9, 12] of the same molecule?
**A.** The MST was 44.4.

**Q.** What about the Range of death [9, 12] of the same molecule?
**A.** The Range of death was 30-54.

**Q.** What about the “Survivors 4 months after inoculation” value [9, 12] of the same molecule?
**A.** Its value is 0.

**Q.** What about the ILS % [9, 13] of the same molecule?
**A.** Its ILS % is 64%.

**Q.** And the MST [9, 13]?
**A.** Its MST is 55.4.

**Q.** What about the Range of death [9, 13] of the same molecule?
**A.** Its Range of death is 50-82.

**Q.** What about the “Survivors 4 months after inoculation” value [9, 13] of the same molecule?
**A.** The value was 2.

**Q.** And the life span [9]?
**A.** The life span was “significant increase of the life span”.

— patent publication US4444776A, “Dipyrido (4,3-B) (3,4-F) indoles, process for obtaining them, therapeutical use and pharmaceutical compositions” (priority 1977, dated 1984)
